Entries after “also recorded” stand apart in the source; their conditions may differ. Read-outs that look alike come from different tables or passages of the source. Each block holds one compound with its values, some of them ahead of it.
Legend:
mice = assay: MeHg model of developmental neurotoxicity, depression-like behavior; assay type: in vivo, mouse
C57Bl/6 mice [1] = assay: Forced swim test (FST), depression-like behavior; assay type: in vivo, mouse; details: for immobility time in FST after FLX treatment: 12 mo, FLX 80 mg/L in drinking water for 21 days
Experimental: […]; Sigma-Aldrich, Sweden) from gestational day (GD) 14 until delivery. The delivery day was recorded as postnatal day (PND) 0. The litters were culled to 4 pups/litter at PND3. The pups were weighed at PND3, 7, 14, and 21. At weaning (PND21), the mice were implanted subcutaneously with sterile radio-frequency identification (RFID) tags (Trovan Unique 100A, Trovan Ltd., UK) under brief isoflurane anesthesia. The transponders allowed unambiguous identification of animals and were also used for monitoring the activity in homecage environment. After implantation, the pups were redistributed to new cages so that each cage would house a maximum of 5 mice originating from different litters, and the distribution was maintained throughout the study. The mice were kept in an animal facility under 12 h:12 h light-dark (LD) cycle (light intensity 50 lx; light on at 6 a.m.) at constant temperature (22±1° C.) and humidity (50%±5%). The circadian zeitgeber (“time-giver”) time (ZT) 0 corresponds to the subjective sunrise, i.e., the onset of the light phase.
Adult male mice aged 7 weeks, 3 mo, or 12 mo were tested for depression-like behavior in the forced swim tests (FST). Briefly, the animals were individually placed in glass cylinders (24 cm height, 12 cm diameter) filled with water (23.5° C.) to a depth of 16 cm. The animals were exposed to a 15 min pretest followed by a 6 min test 24 h later. Test sessions were videotaped and analysed offline by one investigator who was blind to the treatment and exposure conditions. Immobility was defined as passive floating for at least 2 s. After documenting depression-like behavior at the age of 12 mo, the animals were treated with fluoxetine (FLX; a selective serotonin re-uptake inhibitor antidepressant) dissolved in drinking water (80 mg/L) for 21 days before repeating the test. In addition to FST, depression-like behavior was tested in a tail-suspension test (TST), as described below.

[2] = test system: hippocampal dentate gyrus; details: chronic FLX; for effect of FLX treatment on neurogenesis: 12 mo
C57Bl/6 mice [3] = assay: Tail-suspension test (TST); assay type: in vivo, mouse; details: prenatal DEX exposure; mice aged 12 mo
Experimental: The delivery day was recorded as postnatal day (PND) 0. The litters were culled to 4 pups/litter at PND3. The pups were weighed at PND3, 7, 14, and 21. At weaning (PND21), the mice were implanted subcutaneously with sterile radio-frequency identification (RFID) tags (Trovan Unique 100A, Trovan Ltd., UK) under brief isoflurane anesthesia. The transponders allowed unambiguous identification of animals and were also used for monitoring the activity in homecage environment. After implantation, the pups were redistributed to new cages so that each cage would house a maximum of 5 mice originating from different litters, and the distribution was maintained throughout the study. The mice were kept in an animal facility under 12 h:12 h light-dark (LD) cycle (light intensity 50 lx; light on at 6 a.m.) at constant temperature (22±1° C.) and humidity (50%±5%). The circadian zeitgeber (“time-giver”) time (ZT) 0 corresponds to the subjective sunrise, i.e., the onset of the light phase.
For TST, the mice were allowed to acclimatize in the testing room for at least 30 min before the experiment. The mice were suspended by the tail 15 cm above the table (using adhesive tape placed approx. 2 cm from the base of the tail). Soft padding was provided in order to prevent injuries in case the animal escaped or fell down because of tape failure. After 6 min, the animal were released and placed in the homecage. […]

[4] = Corticosterone metabolites in feces; assay type: in vivo, mouse; details: prenatal DEX exposure, 12 mo
Experimental: The circadian pattern of GC secretion at 12 mo was investigated using a minimally invasive approach. To this end, spontaneous fecal boli were collected between ZT1-2 and ZT12-14 (i.e., immediately after the transition between the light and dark phases of the LD cycle). The feces were collected in sterile Eppendorf tubes and stored at −80° C. until further processing. Samples from each mouse were collected on two occasions (7 day interval between samplings) and the measurements for each mouse were averaged before analysing the differences across the LD cycle. The concentration of corticosterone metabolites in dry fecal extracts was measured by enzyme immunoassay according to manufacturer's instructions (DetectX™, Arbor Assays, Ann Arbor, […]., USA).

Bmal1 = Bmal1 expression in primary fibroblast cultures from control and DEX-exposed mice (qPCR); assay type: cell-based, mouse; details: fibroblasts from prenatally DEX-exposed mice aged 6 mo; synchronised with 1 μM DEX
Experimental: (§1) Tissue samples (˜0.25 cm^2) were harvested from the ear of adult (6 mo) control and DEX-exposed mice under terminal anesthesia. The tissue was rinsed in Hank's Balanced Salt Solution (HBSS) (Life Technologies Europe BV, Stockholm, Sweden), then minced with sterile razor blade into Collagenase (Type XI-S) (Sigma-Aldrich, Sweden) (30 min at 37° C.). After digestion, 3 ml of DMEM Medium (Life Technologies) supplemented with 10% Fetal Bovine Serum and 1% Penicillin/Streptomycin (Life Technologies) was added to a 6 cm plate and the samples were incubated at 37° C. for at least 6 days. After passaging (0.05% Trypsin-EDTA; Invitrogen), the cells were plated in 12 multi-well plates in MEF medium (DMEM Medium+10% FBS+1% pen/strep) at a density of at least 50 k/cm^2. […] The cells were then collected between 6 and 36 h after synchronisation. The relative expression of Bmal1 was assessed by qPCR with Gapdh as housekeeping gene as described in Example 1 (Table 2: SEQ ID NO 5 and 6, and 1 5 and 2, respectively).

Per2 promoter = assay: Luciferase reporter assay in Per2::Luc primary mouse fibroblasts after DEX synchronisation; assay type: cell-based; details: 1 μM DEX single pulse
Experimental: The generation of knock-in mice expressing firefly luciferase under the control of Per2 promoter (Per2::Luc) has been described previously (Yoo et al. 2004).
as §1, with “samples (about 0.25” for “samples (˜0.25”, “and Dex-exposed” for “and DEX-exposed”, “The number of photons emitted by each culture dish was counted over 1 minute every 10 min (time resolution: 6 data points/h). The time series” for “The cells”, “were further analyzed by means” for “were then collected between 6 and 36 h after synchronisation. The relative expression”, “of cosinor analysis” for “of Bmal1 was assessed by qPCR with Gapdh as housekeeping gene”, “Example 4.” for “Example 1 (Table 2: SEQ ID NO 5 and 6, and 1 5 and 2, respectively).”

BMAL1, PER1 and PER2 = assay: Clock gene mRNA expression in primary human fibroblasts after DEX synchronisation (qPCR); assay type: cell-based; details: 1 μM DEX; fibroblasts from healthy subjects; 6-36 h after synchronisation
Experimental: A skin biopsy (about 5×2 mm) was collected from the internal aspect of the arm under sterile conditions after local anesthesia using EMLA patches (AstraZeneca, Sodertalje, Sweden). The wound was then covered with a sterile patch, and a small scar is formed typically within […]. The tissue sample was quickly transferred to ice-cold HBSS (Life Technologies Europe BV, Stockholm, Sweden) and minced with a sterile razor blade into Collagenase (Type XI-S) (Sigma-Aldrich, Sweden) (30 min at 37° C.). After digestion, 3 ml of DMEM Medium (Life Technologies) supplemented with 10 mM Hepes buffer, sodium pyruvate, non-essential amino acid mixture, glutamax, 20% Fetal Bovine Serum, and 1% Penicillin/Streptomycin (all supplements were from Life Technologies) was added to a 6 cm plate and the samples were incubated at 37° C. until the fibroblasts reached confluence (typically 3-4 weeks). The confluent fibroblast cultures were passaged (0.05% Trypsin-EDTA; Invitrogen) then plated in 12 multi-well plates at a density of at least 50 k/cm^2 in the same medium as used above. […] The cells were collected between 6 and 36 h after synchronisation. The relative mRNA expression of BMAL1, PER1 and PER2 (Table 2: SEQ ID NO 19 and 20) was assessed by qPCR with HP RT (Table 2: SEQ ID NO 13 and 14) as housekeeping gene. The qPCR procedure is described in Example 1.

C57Bl/6 mice [5] = assay: Homecage spontaneous activity (cosinor, periodogram, detrended fluctuation analysis)
Experimental: The spontaneous activity of mice aged 1, 3, 5, and 12 mo (N=7-8/group) was recorded using the TraffiCage™ system (NewBehavior, Zurich, Switzerland). Briefly, the system consists of an array of radio frequency (RF) antennas placed under the cage with group-housed, freely moving mice. The antennas read the RFID tags and provide an approximate location of each animal with a time resolution of 20 ms. The time interval during which an animal is detected constantly by the same antenna is defined as a “visit.” When an animal changes location enough to be detected by another antenna, a new visit is recorded. Each visit is described by the start time and duration. For long recordings, the number of visits is virtually equal to the number of transitions, and can be used as activity count. The time series of visits are exported as ASCII files and analysed using custom routines developed in Matlab™ R2013b (The MathWorks™, Natick, Md., USA).
The mice were housed in a climate-controlled, isolated room for a period of 6 to 7 weeks, with minimal interactions with human experimenters (except for changing the cage and to replenish food and water, which occurred at random times throughout the experiment). The synchronisation of activity monitoring with the LD cycle was ensured by using a remote control device (TellStick™, Telldus Technologies AB, Lund, Sweden) operated by the computer running TraffiCage™ control software. To minimize the effects of novelty and possible interference from circadian rhythm entrainment, the baseline measurements were derived based on 3 LD cycles after an acclimation period of at least 3 LD cycles.
The analysis of circadian rhythmicity consisted of rhythmometry by means of cosinor analysis. […] We next analysed spontaneous activity by detrended fluctuation analysis (DFA). The method is based on linear regression analysis of the residual variance of the time series against the time scale used for detrending on double-logarithmic plots. The slope of a linear regression in double-logarithmic plot translates into a scaling exponent, and describes the long-term autocorrelation patterns embedded in the time series.

SMILES: [CH3][Hg][Cl] [MeHg, methylmercury]
depression-like behavior after developmental exposure (mice): detectable in young adults

SMILES: CNCCC(Oc1ccc(C(F)(F)F)cc1)c1ccccc1 (stereo not drawn) [FLX, fluoxetine]
reversal of depression-like behavior by antidepressant treatment (C57Bl/6 mice [1]; DEX model, middle-aged mice (12 months)): not reversed
immobility time in FST after FLX treatment (C57Bl/6 mice [1]; DEX-exposed mice): not altered
immobility time in FST after FLX treatment (C57Bl/6 mice [1]; control mice): decreases
reversal of depression-like behavior by antidepressant treatment (mice; young adults (2-3 months)): reversed
effect of FLX treatment on neurogenesis ([2]; DEX-exposed mice): did not have any significant effect; also recorded: has no effect
effect of FLX treatment on neurogenesis ([2]; controls): reduces
number of DCX+ cells after FLX ([2]; middle-aged controls): decreased

immobility time in FST vs controls (C57Bl/6 mice [1]; prenatal DEX 0.05 mg/kg/day s.c. from GD14 until delivery, male offspring at 12 mo): increased
depression-like phenotype in tail suspension test (C57Bl/6 mice [3]): reconfirmed
levels of corticosterone metabolites in the feces vs controls [4]: lower levels
oscillations in Bmal1 expression vs control mice (Bmal1): attenuated oscillations
scaling coefficient of spontaneous activity (detrended fluctuation analysis) (C57Bl/6 mice [5]; one DEX-exposed mouse (FIG. 6D), control mouse 0.82): 0.88
amplitude of circadian rhythm (cosinor), baseline vs forced synchronisation (C57Bl/6 mice [5]; prenatal DEX exposure): no significant difference
circadian period of spontaneous activity (C57Bl/6 mice [5]; prenatal DEX exposure, 12 months old, constant steady entrainment): shorter
amplitude of circadian rhythm (cosinor) at baseline vs controls (C57Bl/6 mice [5]; prenatal DEX exposure, LD cycle baseline): larger
scaling exponent, free-running vs circadian entrainment conditions (C57Bl/6 mice [5]; prenatal DEX exposure, all ages investigated): significant fluctuations
acrophase, baseline vs forced synchronisation (C57Bl/6 mice [5]; prenatal DEX exposure, mice aged 3 mo and older): did not vary
SMILES: C[C@@H]1C[C@H]2[C@@H]3CCC4=CC(=O)C=C[C@]4(C)[C@@]3(F)[C@@H](O)C[C@]2(C)[C@@]1(O)C(=O)CO [DEX, dexamethasone]
circadian fluctuations in GC secretion ([4]; ZT1-2 vs ZT12-14): did not show significant circadian fluctuations
time over which oscillations can be detected after initial DEX synchronisation (Per2 promoter): ≤ 10 days
period of oscillations in clock gene mRNA expression after DEX synchronisation (BMAL1, PER1 and PER2): about 24 h
